# Measurements published in paper PMC5316400, “Validation of precision-cut liver slices to study drug-induced cholestasis: a transcriptomics approach” (Archives of Toxicology, 2016).
# Key:
# [1] = tested on: human precision-cut liver slices (PCLS); assay: Transcriptomics of human PCLS: differentially regulated genes; assay type: cell-based; conditions: fold change of 1.5 and adjusted p value 0.05, 24 h, 60 μM bile acid mix
# Protocol: (§1) Precision-cut liver slices of 5 mm diameter and 250 μm thickness were prepared (de Graaf et al. [2010]). At this thickness, full penetration of substrates has been shown. PCLS were made using the Krumdieck tissue slicer (Alabama R&D, Munford, AL, USA) in ice-cold Krebs buffer at pH 7.42, enriched with glucose to a final concentration of 25 mM, saturated with carbogen (95 % O2/5 % CO2). Immediately after the slices were made, they were placed in ice-cold University of Wisconsin organ preservation solution (UW, Dupont Critical Care, Waukegan, IL, USA) and stored on ice until the beginning of the experiment. Slices were pre-incubated individually in 12-well plates in 1.3 ml of Williams Medium E with glutamax-1 (Gibco, Invitrogen, Paisley, Scotland) supplemented with 25 mM D-glucose and 50 μg/ml gentamycin (Gibco, Invitrogen, Paisley, Scotland). In the incubator (Sanyo CO2/O2 Incubator, PANASONIC, Secaucus, NJ, USA), the plates were gently shaken (90 times/min) for 1 h under 80 % O2 and 5 % CO2 atmosphere at 37 °C. This pre-incubation allows the slices to restore their ATP levels. […] The plates were incubated under the same conditions for 24 h. All incubation conditions were carried out in triplicate. Each experiment was performed in slices of 6 different human livers (Table 1). Slices were harvested for ATP assay in 100 mM Tris buffer with 2 mM EDTA and for RNA isolation in RNAlater. The bile acid mix was added to the medium in order to create an environment similar to the physiological concentration in the portal vein. The composition of the serum bile acids was according to Scherer et al. ([2009]). Pilot experiments were performed to find out the non-toxic concentration of the bile acid mix.
# (§2) Maxwell® 16 LEV Total RNA purification kit (Promega, The Netherlands) with Maxwell® 16 LEV Instrument was used to isolate RNA from the samples. Immediately after isolation, the RNA quality was assessed by measuring the 260/280 and 260/230 ratios, and the concentration was measured with the ND-1000 spectrophotometer (Fisher Scientific, Landsmeer, The Netherlands). The quality (RIN value) and quantity of the RNA were determined by high-throughput Caliper GX LabChip RNA kit (Caliper).
# (§3) Ambion Illumina Total Prep RNA kit was used to transcribe 300 ng RNA to cRNA according to the manufacturer’s instructions. A total of 750 ng of cRNA was hybridized at 58 °C for 16 h to the Illumina HumanHT-12 v4 Expression BeadChips. BeadChips were scanned using Iscan software, and IDAT files were generated (Illumina, San Diego, CA, USA).
# (§4) GenomeStudio software (Illumina) was used to read the IDAT files and generate raw expression values. The ArrayAnalysis web service (www.arrayanalysis.org/) was used for further preprocessing the data, which uses lumi R package (Eijssen et al. [2013]). Raw gene expression data were background-corrected (bgAdjust), variance-stabilized (VST) and normalized by quantile normalization. After normalization, the data were corrected for batch differences owing to RNA isolation and hybridization using the ComBat method implemented in the swamp package in R (Lauss et al. [2013]). Differentially expressed genes in slices exposed to the cholestatic drugs in the presence of bile acids versus the slices exposed to vehicle (DMSO) in the presence of bile acids were identified using the unpaired moderated t test in the limma package (Ritchie et al. [2015]). Genes that are regulated with a criterion of fold change of 1.5 (≤ or ≥1.5), and FDR-corrected p value ≤0.05 (Benjamini and Hochberg method) were chosen for pathway analysis. To compare our data with the scarcely available human in vivo data, human in vivo late-stage cholestasis data were downloaded from the Gene Expression Omnibus database (GSE46960).
# [2] = adult patients, therapeutic dose, systemic blood; no reference given; cited from earlier work
# [3] = tested on: Genes involved in unfolded protein response (UPR); assay: Microarray gene expression in human PCLS exposed to cholestatic drugs: unfolded protein response genes; assay type: cell-based; conditions: 100 μM; 24 h; 60 μM bile acid mix
# Protocol: as §1, §2, §3, §4
# [4] = C max in systemic blood of adult patients after a therapeutic dose; conditions: highest toxic concentration tested in human PCLS vs C max in adult patients
# [5] = tested on: Genes involved in hepatic cholestasis pathway; assay: Microarray gene expression in human PCLS exposed to cholestatic drugs: hepatic cholestasis pathway genes; conditions: 100 μM; 24 h; 60 μM bile acid mix
# Protocol: as §1, §2, §3, §4
# [6] = tested on: Genes involved in the FXR pathway; assay: Microarray gene expression in human PCLS exposed to cholestatic drugs: FXR pathway genes; conditions: 100 μM; 24 h; 60 μM bile acid mix
# Protocol: as §1, §2, §3, §4
smiles,measurement,setting,value
"C#C[C@]1(O)CC[C@H]2[C@@H]3CCc4cc(O)ccc4[C@H]3CC[C@@]21C [EE, ethinyl estradiol]",Number of regulated genes,[1]; 25 μM,0
same,Number of regulated genes,[1]; 50 μM,5
same,Number of regulated genes,[1]; 75 μM,63
same,Cmax,[2],8.2 nM
"C[C@]12CCC(=O)C=C1CC[C@@H]1[C@@H]2CC[C@@]2(C)[C@H]1CC[C@]2(C)O [MT, methyl testosterone]",ATF4 fold change,[3],1.2
same,DDIT3 (CHOP) fold change,[3],2.9
same,DNAJB9 fold change,[3],1.3
same,ERN1 fold change,[3],3.0
same,HSPA9 fold change,[3],1.3
same,HSPH1 fold change,[3],1.7
same,INSIG1 fold change,[3],−1.5
same,NFE2L2 fold change,[3],−1.1
same,SYVN1 fold change,[3],1.1
same,toxic concentration used in PCLS study relative to C max,[4],~ 770 × C max
same,Number of regulated genes,[1]; 25 μM,11
same,Number of regulated genes,[1]; 50 μM,38
same,Number of regulated genes,[1]; 100 μM,233
same,ABCB4 fold change,[5],−3.6
same,ABCB11 fold change,[5],−1.2
same,ABCC3 fold change,[5],−1.8
same,ABCG5 fold change,[5],−1.7
same,ABCG8 fold change,[5],−1.4
same,CYP8B1 fold change,[5],1.1
same,CYP27A1 fold change,[5],−1.5
same,GCGR fold change,[5],−1.1
same,IL1B fold change,[5],−1.2
same,IL1RL1 fold change,[5],3.5
same,IL1RN fold change,[5],1.9
same,IRAK2 fold change,[5],1.0
same,JUN fold change,[5],1.6
same,NR0B2 fold change,[5],1.0
same,NR1H3 fold change,[5],−1.3
same,NR1H4 fold change,[5],−1.1
same,PPRC1 fold change,[5],1.1
same,RXRA fold change,[5],−1.7
same,SLC22A7 fold change,[5],−1.1
same,TNFRSF1B fold change,[5],1.1
same,Cmax,[2],130 nM
same,ABCB4 fold change,[6],−3.6
same,ABCB11 fold change,[6],−1.7
same,ABCG5 fold change,[6],−1.6
same,ABCG8 fold change,[6],−1.4
same,APOC2 fold change,[6],1.0
same,APOC4 fold change,[6],−1.4
same,APOF fold change,[6],1.1
same,BAAT fold change,[6],−1.4
same,C3 fold change,[6],−2.0
same,CYP8B1 fold change,[6],1.1
same,CYP27A1 fold change,[6],−1.5
same,FASN fold change,[6],1.2
same,FBP1 fold change,[6],1.2
same,FETUB fold change,[6],−1.3
same,FGA fold change,[6],1.9
same,ITIH4 fold change,[6],−1.4
same,KNG1 fold change,[6],−1.7
same,NR0B2 (SHP) fold change,[6],1.3
same,NR1H3 (LXR) fold change,[6],−1.0
same,NR1H4 (FXR) fold change,[6],−1.2
same,PON1 fold change,[6],1.1
same,RXRA fold change,[6],−1.7
same,SCARB1 fold change,[6],−1.6
same,SDC1 fold change,[6],−1.8
same,SERPINF2 fold change,[6],−1.2
same,SLC22A7 fold change,[6],−1.5
same,SLC51B fold change,[6],−2.8
same,SULT2A1 fold change,[6],1.7
